In patent publication US20220282304A1, “SAME-SAMPLE ANTIBIOTIC SUSCEPTIBILITY TEST AND RELATED COMPOSITIONS, METHODS AND SYSTEMS” (CALIFORNIA INSTITUTE OF TECHNOLOGY, priority 2021, published 2022):

System: Escherichia coli K12
Experiment: Digital same-sample filtration AST at two antibiotic concentrations (Example 13)
Format: cell-based
Settings: for Both (number of wells) / Empty (number of wells) / Extracellular only (number of wells) / Intracellular only (number of wells): 19.0 to 21.2 minutes to centrifugation, 32 partitions, qPCR
Procedure: A 96-well microtiter plate was prepared for the experiment by placing Mueller-Hinton Broth (MHB) growth media and one of three different concentrations of ertapenem (ETP) sodium salt into each well. 32 of the wells contained 0 μg/mL of ETP antibiotic and served as reference condition antibiotic exposures; pure water was added instead of ETP dissolved in pure water. Another 32 of the wells contained 0.417 μg/mL of ETP (for a final concentration of 0.25 μg/mL). The last 32 wells contained 3.33 μg/mL of ETP (for a final concentration of 2.0 μg/mL). The 64 wells containing some ertapenem constituted the treated condition antibiotic exposures.
The inoculum was small enough that no detectable difference in the sample's optical density at 600 mm (OD600) was detectable by a spectrophotometer with a sensitivity of 0.01 absorbance units. After an incubation at 37° C., the media became turbid with an OD600 of 0.334 absorbance units after 3.5 hours of incubation.
In this experiment, the number and volume of sample partitions was restricted, for logistical reasons, to 96 partitions 25 μL in volume, specifically the wells of a 96-well plate. A target loading density of 0.5 cells per partition was set. The contrived clinical sample was diluted by a factor of 9.97239*10^−7 via a three-step serial dilution to an estimated density of […].
To begin the AST protocol, the diluted contrived clinical specimen was physically partitioned into the 96 samples by transferring 10 μL of the specimen, in 96 separate transfers (actually 8 transfers with a multichannel pipette), to each well of the 96-well microtiter plate containing ETP and MHB. Then, the entire plate was sealed with a RNase/DNase-free plastic, adhesive sealing membrane and placed on a thermal block set to 37° C. and shaking at 700 rpm.
After 8 minutes of incubation at 37° C., the exposures were taken back to the lab bench. The entire volume of each antibiotic exposure was transferred to a Millipore® 96-well sterile polystyrene MultiScreenHTS® filter plate (Millipore-Sigma MSGVS2210). Each well of the filter plate contained a hydrophilic polyvinylidene fluoride (PVDF) filter membrane with a […]. A 96-well polypropylene microtiter plate was affixed to the bottom of the filter plate. The filter plate was promptly centrifuged at 2200 relative centrifugal force for 5.0 minutes to speed the passage of the antibiotic exposure sample through the filter and into 96-well microtiter plate. The collected fluid was called the “filtrate.” In total, between 19.0 and 21.2 minutes elapsed between the first addition of cells to the exposure volume and the start of the centrifugation. The total time elapsed differed slightly among wells because cells could not be manually added to all wells at the exact same time.
8 μL of each filtrate was transferred to new containers containing 6 μL of Lucigen DNA Extraction Buffer, vortexed, centrifuged briefly to collect liquid at the bottom of the tube, and then heated for 6 minutes at 65° C. and then 4 minutes at 98° C.
After the creation of the filtrates, 30 μL of fresh MHB media was added to all filters. […] The purpose of this new volume of MHB was to wash away residual extracellular nucleic acids that might be confused for intracellular nucleic acids when the lysate was collected. The 30 μL of fresh MHB was centrifuged for 5 minutes at 2200 rcf into a clean 96-well plate, then discarded.
Next, 20 μL of DNA Extraction Buffer was placed into all of the wells of the filter plate, on top of the filters. The filter plate was heated to 65° C. for 6 minutes, without shaking, on a ThermoMixer® flat surface heating block. Intracellular nucleic acids were released from lysed cells into the DNA Extraction Buffer fluid. Then, the filter plate was taped to a clean 96-well polypropylene microtiter plate and centrifuged at 2200 rcf for 5 minutes. The DEB fluid that flowed through the filter was collected in the microtiter plate below the filter plate. […]

## C[C@@H](O)[C@H]1C(=O)N2C(C(=O)O)=C(S[C@@H]3CN[C@H](C(=O)Nc4cccc(C(=O)O)c4)C3)[C@H](C)[C@H]12 [ETP, ertapenem]
2.0 μg/mL condition, more exposure time or more cells needed for a conclusive result
  susceptibility interpretation: more likely to be susceptible
2.0 μg/mL condition, reference background 0/29
  proportion of lysis: 2/34
Treated 0.25 μg ETP/mL
  Intact (most likely number of cells): 26
  Lysed (most likely number of cells): 0
  Both (number of wells): 0
  Empty (number of wells): 15
  Extracellular only (number of wells): 0
  Intracellular only (number of wells): 17
Treated 2.00 μg ETP/mL
  Intact (most likely number of cells): 32
  Lysed (most likely number of cells): 2
  Both (number of wells): 2
  Empty (number of wells): 10
  Extracellular only (number of wells): 0
  Intracellular only (number of wells): 20
